Test results as given in US4851209A, “Diagnostic procedures using radio labeled sucralfate and derivatives or precursors thereof” (The Regents of the University of California, priority 1985, dated 1989).

Key:
[1] = system: duodenal and gastric ulcers, gastric erosions, mucosa; settings: cited from earlier work
duodenal ulcers = settings: several clinical trials; cited from earlier work
pepsin = settings: cited from earlier work
[2] = stability of tagged material in solution; assay type: physicochemical; settings: one gram per 10 cc of normal saline
Description: The tagged material was stable in a solution comprising one gram per 10 cc of normal saline. The solution was given orally as a 10 cc dose. […] A good analogy would be the stars at night vs. the stars during the day. The stars are there in both instances. However, the sky is so bright during the day that star-light is simply lost in the background. […] The potassium salt used for imaging ulcers in Example III can be replaced by other cations compatible in the human body including alkali metal and alkaline earth metal cations such as sodium and calcium.

## Sucralfate
[1]; FDA approved drug
  binding to ulcerated areas in the upper G. I. tract: bind selectively to ulcerated areas
[1]; animal data
  duration of action: sustained
[1]; compared with defective mucosa
  binding to uninjured mucosa: to a much lesser extent
[1]; erosions produced by ethanol and anti-inflammatory drugs
  binding to duodenal and gastric ulcers and to gastric erosions: binds to duodenal and gastric ulcers and to gastric erosions
Duodenal ulcers
  safety and efficacy in healing duodenal ulcers: shown the safety and efficacy
pepsin
  inhibition of the action of pepsin: inhibits the action of pepsin

## potassium sucrose sulfate [Tc-99m labeled potassium sucrose sulfate]
[2]
  stability in solution: stable
